Measurements as given in patent US20110269817A1, “COMPOSITIONS AND METHODS RELATED TO SIRT1 FUNCTION” (The Regents of the University of California, priority 2008, published 2011).

Columns and labels:
[1] = tested on: Per2 and Dbp gene expression in MEFs; experiment: Per2 and Dbp gene expression in serum-entrained MEFs treated with FK866, q-PCR; format: cell-based, mouse; details: MEFs pretreated with 10 nM FK866, then serum-stimulated
Experimental: Each quantitative real-time RT-PCR was performed using the Chromo4 real time detection system (BIO-RAD). […] The reaction was first incubated at 95° C. for 3 min, followed by 40 cycles at 95° C. for 30 s and 60° C. for 1 min.

Nampt = Nampt (Homo sapiens, UniProt P43490); details: literature (ref. 30); cited from earlier work
Sequence of Nampt (P43490 whole entry): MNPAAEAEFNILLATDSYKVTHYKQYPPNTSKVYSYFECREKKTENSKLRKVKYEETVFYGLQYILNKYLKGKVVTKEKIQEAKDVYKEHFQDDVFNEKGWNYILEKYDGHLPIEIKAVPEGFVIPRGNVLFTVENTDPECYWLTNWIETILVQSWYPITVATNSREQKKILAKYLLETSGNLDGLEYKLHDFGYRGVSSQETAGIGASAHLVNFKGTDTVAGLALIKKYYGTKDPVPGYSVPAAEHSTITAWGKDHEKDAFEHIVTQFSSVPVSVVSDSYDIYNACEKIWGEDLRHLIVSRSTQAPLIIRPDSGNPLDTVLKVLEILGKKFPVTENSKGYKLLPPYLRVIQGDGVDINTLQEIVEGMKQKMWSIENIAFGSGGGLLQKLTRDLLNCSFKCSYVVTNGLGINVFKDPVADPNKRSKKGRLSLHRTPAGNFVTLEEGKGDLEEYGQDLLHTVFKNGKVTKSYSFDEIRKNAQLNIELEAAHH

BMAL1 Lys537 acetylation = BMAL1 Lys537 acetylation profile in serum-entrained MEFs treated with FK866; format: cell-based, mouse; details: cultured MEFs
Experimental: This illustrates Nampt modulation of the circadian clock. Panel A depicts Pert and Dbp gene expression levels in serum-entrained MEFs treated with 10 nM FK866 or EtOH as control (solvent:ctrl) were analyzed by q-PCR. The highest value for each gene in EtOH treated MEFs was set to 1. All data presented are the means±SEM of three independent samples. […] Cell extracts prepared from indicated time points were processed to visualize BMAL1 acetylation using the anti-acetyl specific BMAL1 antibody as described herein. Input samples were probed with anti-BMAL1 and anti-GAPDH antibodies. Panel C is a schematic representation of the transcription-enzymatic interplay by which the circadian machinery governs the intracellular levels of NAD^+. The NAD^+-dependent deacetylase SIRT1 is thereby controlling the oscillatory synthesis of its own coenzyme.
NAMPT inhibitor “FK866” treatment experiments MEFs in growing phase (−50% confluent) were pre-treated with 10 nM FK866 dissolved in ethanol/serum-free DMEM 16 hr prior to high serum treatment. After 2 hr serum treatment, medium were changed to serum-free medium containing 10 nM FK866. […]

O=C(/C=C/c1cccnc1)NCCCCC1CCN(C(=O)c2ccccc2)CC1 [FK866]
increase of amplitude of oscillation (Per2 and Dbp), average [1]: 30-40%
onset of the circadian peak for both genes (Per2 and Dbp), earlier by [1]: 3 to 4 h
inhibition of Nampt enzymatic activity (Nampt): specifically inhibits Nampt enzymatic activity
BMAL1 acetylation at K537 (BMAL1 Lys537 acetylation; 10 nM FK866): heavily increased and displays a broader peak
effect on BMAL1 protein levels (BMAL1 Lys537 acetylation; 10 nM FK866, any time of the circadian cycle): no major effect
